Each structure is given as a SMILES string.

One series has as its target T1, ESRα (Homo sapiens, UniProt P03372).
T1 sequence (P03372 1-595): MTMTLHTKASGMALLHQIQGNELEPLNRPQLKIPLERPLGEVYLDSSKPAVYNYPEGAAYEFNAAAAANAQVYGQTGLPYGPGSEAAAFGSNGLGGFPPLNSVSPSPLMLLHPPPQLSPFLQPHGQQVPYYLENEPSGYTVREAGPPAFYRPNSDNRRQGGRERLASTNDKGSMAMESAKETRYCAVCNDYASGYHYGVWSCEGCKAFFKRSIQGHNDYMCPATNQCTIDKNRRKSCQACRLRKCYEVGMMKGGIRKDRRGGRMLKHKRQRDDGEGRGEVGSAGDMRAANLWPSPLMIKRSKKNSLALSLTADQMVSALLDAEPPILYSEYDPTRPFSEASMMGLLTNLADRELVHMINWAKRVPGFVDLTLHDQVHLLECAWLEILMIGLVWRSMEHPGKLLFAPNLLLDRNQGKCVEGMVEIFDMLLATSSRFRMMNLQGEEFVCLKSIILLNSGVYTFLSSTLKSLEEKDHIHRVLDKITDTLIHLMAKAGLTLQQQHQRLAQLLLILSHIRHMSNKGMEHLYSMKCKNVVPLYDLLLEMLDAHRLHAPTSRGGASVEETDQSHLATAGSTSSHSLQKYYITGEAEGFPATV
To be noted: cited from earlier work.

Series [1] deals with human hematopoietic progenitors (CB-CD34+). Briefly: LTC-IC human bone marrow-like co-culture (hMSC + hCD34+) and CFU assay. The series is classed as cell-based. On the procedure: LTC-IC was established through the co-culture of human bone marrow Mesenchymal Stromal Cells (BM-MSC) and human progenitors (CB-CD34+) to research the positive effects of the estrogens in a human context, such as an in vitro human bone marrow model. LTC-ICs were treated with vehicle or 100 µM of E2 or E4 for a week. […] Cells were plated in methycellulose media with specific hematopoietic cytokines to evaluate the hematopoietic progenitor content. After 14 days, colony forming units (CFU) were counted. Data were normalized to control groups. […] 1×10^5 human mesenchymal stromal cells (hMSC) were seeded in a p6 well and irradiated with 30 Gy next day. The following day, 5×10^4 hCD34^+ were added to the hMSC in LTC-IC media: 75% α-MEM without Phenol Red (Life Technologies), 12.5% Hyclone FBS (GE Healthcare), HS (Life Technologies), β-mercaptoethanol (Life Technologies), 0.5% PS and 1×10^−6 M Hydrocortisone (Sigma-Aldrich). 100 μM of estrogens, dissolved in ethanol, was added to the co-culture for a week, and then the cells were collected and the amount of human hematopoietic progenitors were evaluated in semisolid media supplement with specific hematopoietic cytokines (H4535, StemCell Technologies) plus 8 U/ml hEPO. After fourteen days, colony-forming units (CFU) were evaluated and normalized to the control: […]

Series [2] deals with human cord-blood CD34+ cells. Briefly: Human hematopoietic engraftment in male NSG mice transplanted with 5×10^4 human cord-blood CD34+ cells. It counts as in vivo, mouse. On the procedure: Three-four months later, the animals were sacrificed and the human hematopoietic engraftment was analyzed by FACS. Human hematopoietic population was identified as the cells positive for hCD45-APC-Cy7 (Biolegend) and negative for mouse CD45.1-PE (Biolegend). In order to further examine the effect of the estrogen in HSCT, hematopoietic progenitors (hCD34+) and hematopoietic stem cells (hCD34+/hCD38−) were analyzed by FACS inside of the human population in the treated NSG described in Example 1.

The test system of another series is human cord blood CD34+. Description: Human engraftment in male NSG mice transplanted with a limited CD34+ cell dose (5×10^3). It counts as in vivo, mouse. On the procedure: FIG. 6A indicates the level of human engraftment, which was raised by E4 administration. […] (Kruskal-Wallis test; P=0.1150, 7-10 mice per group). […] Three-four months later, the animals were sacrificed and the human hematopoietic engraftment was analyzed by FACS. Human hematopoietic population was identified as the cells positive for hCD45-APC-Cy7 (Biolegend) and negative for mouse CD45.1-PE (Biolegend). To determine whether estrogen can improve hematopoietic reconstitution of low number of hematopoietic progenitors, male NSG were irradiated and transplanted with low doses of human cord blood CD34+ (5×103 hCD34+). The human engraftment was analyzed as described in Example 1.

In series [3] the target is T2, sex hormone-binding globulin (SHBG) (Homo sapiens, UniProt P04278).
T2 sequence (P04278 30-402): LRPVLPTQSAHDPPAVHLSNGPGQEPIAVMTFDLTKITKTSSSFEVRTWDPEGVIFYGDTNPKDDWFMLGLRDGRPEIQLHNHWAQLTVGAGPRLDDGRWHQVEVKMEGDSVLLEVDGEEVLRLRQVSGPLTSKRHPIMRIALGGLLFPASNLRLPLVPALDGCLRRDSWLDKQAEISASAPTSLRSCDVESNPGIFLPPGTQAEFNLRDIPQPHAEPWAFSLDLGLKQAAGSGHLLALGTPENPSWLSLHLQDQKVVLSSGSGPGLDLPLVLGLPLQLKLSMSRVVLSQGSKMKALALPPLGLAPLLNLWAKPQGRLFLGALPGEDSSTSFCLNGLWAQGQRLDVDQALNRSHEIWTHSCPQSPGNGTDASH
To be noted: cited from earlier work.

As for `C[C@]12CC[C@@H]3c4ccc(O)cc4CC[C@H]3[C@@H]1[C@@H](O)[C@@H](O)[C@@H]2O` [E4, estetrol], at ESRα, the “affinity for ER relative to β-estradiol” value was “less affinity than β-estradiol” and the “affinity for ESRα versus ESRβ” value is on record as “high affinity for ESRα as compared to the ESRβ”. Besides, in series [1] (100 μM estrogen for a week, CFU after fourteen days, normalized to control, mean +/− SEM), the “Normalized human CFU” value was 1.98 +/− 0.23 (n = 6). For the same molecule, the “total number of primitive hematopoietic progenitors in LTC-IC” value in series [1] (100 μM for a week, versus vehicle) is “almost doubled”. For the same molecule, the “Percentage in the human hematopoietic population: hematopoietic stem cells” value in series [2] (hCD34+/hCD38−, male NSG, 5×10^4 CD34+, 2 μg daily for four days, mean +/− SEM) is recorded as 0.87 +/− 0.11 (n = 11) %. Further, in series [2] (hCD34+, male NSG, 5×10^4 CD34+, 2 μg daily for four days, mean +/− SEM), the “Percentage in the human hematopoietic population: hematopoietic progenitors” value is recorded as 13.94 +/− 0.85 (n = 11) %. Further, the “Percentage of human hematopoietic reconstitution” value in series [2] (male NSG, 5×10^4 CD34+, 2 μg daily for four days, three-four months later, mean +/− SEM) is 47.47 +/− 6.08 (n = 9) %. In addition, the “Percentage in the human hematopoietic population: Lymphoid” value in series [2] (male NSG, 5×10^4 CD34+, 2 μg daily for four days, CD19+, mean +/− SEM) is listed as 81.22 +/− 4.83 (n = 5) %. For the same molecule, in series [2] (male NSG, 5×10^4 CD34+, 2 μg daily for four days, CD33+, mean +/− SEM), the “Percentage in the human hematopoietic population: Myeloid” value was 8.24 +/− 1.65 (n = 5) %. Besides, in series [2] (three months post-transplant, Kruskal-Wallis P<0.05), the “human hematopoietic progenitors (hCD34+) and human HSC (hCD34+CD38−) in the human engraftment, significance” value is “statistically significant differences compared to controls and E2 treated group”. The “proportion of engrafted mice (human engraftment above 0.1%)” value in the series on human cord blood CD34+ (5×10^3 CB-CD34+) is given as 70%. Moreover, the “change of the proportion of engrafted mice versus vehicle” value in the series with human cord blood CD34+ (limited HPC dose, engraftment above 0.1%) is reported as “almost tripled”. In addition, the “Percentage of human hematopoietic reconstitution” value in the series on human cord blood CD34+ (low dose 5×103 hCD34+, mean +/− SEM) is reported as 3.20 +/− 1.43 (n = 9) %. Besides, the “binding by SHBG” value in series [3] is “not bound”.

The values above are taken from patent publication US20210386756A1, “IMPROVEMENTS FOR PERFORMING AND FACILITATING THE RECOVERY AFTER HEMATOPOIETIC STEM CELL TRANSPLANTATION” (Centro de Investigaciones Energéticas, Medioambientales y …, priority 2018, published 2021).
